Assay results taken from ChEMBL document CHEMBL1125997 (Bioorg Med Chem Lett, 1991).

Species on record: Cavia porcellus
Assay: Inhibition of histamine-inducedcontraction of the isolated guinea-pig ileum
Assay type: functional
Settings: read-out: pA2 (converted)

Question: With CC(C)(C)c1ccc([C@@H](O)CCCN2CCC(C(O)(c3ccccc3)c3ccccc3)CC2)cc1 as the compound, how does the Kb read?
Answer: 19.1 nM

Question: How did the Kb turn out when CC(C)(C)c1ccc([C@H](O)CCCN2CCC(C(O)(c3ccccc3)c3ccccc3)CC2)cc1 [R-TERFENADINE] was run?
Answer: 24.5 nM

Question: Which Kb does the source give for CC(C)(C)c1ccc(C(O)CCCN2CCC(C(O)(c3ccccc3)c3ccccc3)CC2)cc1 (stereo not drawn) [TERFENADINE] here?
Answer: 22.4 nM
